Patent US9809560B2, “Ligands and methods for labeling biomolecules in vivo” (Albert Einstein College of Medicine, Inc., priority 2010, dated 2017)

Experiments:
[1] = Fluorogenic kinetic assay of CuAAC of 3-azido-7-hydroxy-coumarin and propargyl alcohol; conditions: 75 μM CuSO4 premixed with ligand, [ligand]:[copper] 2:1 to 6:1; within 15 min
Method: FIG. 1A-1C. Copper(I)-catalyzed azide-alkyne cycloaddition (CuAAC) is accelerated by Cu(I)-stabilizing ligands. (A) CuAAC of azides and terminal alkynes to form 1,4-disubstituted 1,2,3-triazoles. (B) Structures of CuAAC-accelerating ligands. (C) Conversion-time profiles of CuAAC in the presence/absence of accelerating ligands. Reaction conditions: propargyl alcohol (50 μM), 3-azido-7-hydroxy-coumarin (100 μM), CuSO4 (75 μM), 0.1 M potassium phosphate buffer (pH 7.0)/DMSO 95:5, sodium ascorbate ([…]), rt. Error bars represent the standard deviation of three replicate experiments.
Protocol for Kinetic Measurement of CuAAC of 3-azido-7-hydroxy-coumarin and Propargyl Alcohol […]
Procedure for 200 μL reactions: In a 96-well fluorescence plate, add the reagents in the following order: (1) 40 μL of 500 mM phosphate buffer pH 7.0; (2) 1.0 μL 10 mM propargyl alcohol; (3) 10 μL of DMSO; (4) 6 μL of premixed CuSO4 and ligand ([Cu]=2.5 mM); (5) 1.0 μL 20 mM coumarin-N3; (6) 20 μL of 25 mM sodium ascorbate; (7) Read fluorescence (λex=404 nm, λem=477 nm, RFU) on the Synergy plate reader.

[2] = test system: zebrafish embryos; assay: Imaging of fucosylated glycans in zebrafish embryos microinjected with GDP-FucAl; type: in vivo; conditions: among 120 embryos microinjected with nucleotide sugar analogues and treated with click reagents, through four days post click reaction
Method: Zebrafish embryos at the one-cell or two-cell stage were microinjected in the yolk with 1 nL of a 20 mM solution of GDP-FucAl (or GDP-fucose) and either rhodamine-dextran (5% w/v) or phenol red (0.1% w/v) in 0.2 M KCl as a tracer. The embryos were allowed to develop to 5 hpf, at which point they were manually dechorionated. The dechorionated embryos were cultured in E3 embryo medium at 28° C. for an additional 3 h before transferring to 1% agarose-coated 96-well plates containing 92 μL embryo medium using a fire-polished wide-bore Pasteur pipette. Alexa Fluor-488 azide (100 μM from a 1.75 mM stock in H2O) was added to each well, followed by BTTES-CuSO4 or BTTA-CuSO4 6:1 complex ([Cu]=50 μM from 2.5 mM stock). […] After mounting on a slide or 50 mm glass bottom dishes (Matek) in 1.5-3% methyl cellulose and E3 medium, the embryos were ready for imaging by confocal microscopy.
To image fucosylated glycans in zebrafish embryos, GDP-FucAl was synthesized chemoenzymatically and microinjected embryos at the one-cell stage with 20 pmol of GDP-FucAl (FIG. 4B). […] Robust labeling of the treated embryos was achieved within 1-3 min reaction (FIG. 4C), and only background fluorescence was detected for control embryos microinjected with GDP-fucose (FIG. 10). […]

CC(C)(C)n1cc(CN(Cc2cn(CCOS(=O)(=O)O)nn2)Cc2cn(C(C)(C)C)nn2)nn1 [BTTES]
cycloaddition product yield [1]: > 50% | embryos with minor developmental defects [2]: less than twelve embryos exhibited minor developmental defects
